For 15 compounds, IC50 and melting point results are on record in US11052092B2, “N-{[2-(piperidin-1-yl)phenyl](phenyl)methyl}-2-(3-oxo-3,4-dihydro-2H-1,4-benzoxazin-7-yl)acetamide derivatives and related compounds as ROR-gamma modulators for treating autoimmune diseases” (Genfit, priority 2017, dated 2021).

The target in one data set is T1, human RORγt (Homo sapiens, UniProt P51449).
T1 construct: the full-length cDNA of human RORγt; expressed in transfected cells; host or cells: COS-7 (monkey kidney)
T1 sequence (P51449 1-497 isoform P51449-2): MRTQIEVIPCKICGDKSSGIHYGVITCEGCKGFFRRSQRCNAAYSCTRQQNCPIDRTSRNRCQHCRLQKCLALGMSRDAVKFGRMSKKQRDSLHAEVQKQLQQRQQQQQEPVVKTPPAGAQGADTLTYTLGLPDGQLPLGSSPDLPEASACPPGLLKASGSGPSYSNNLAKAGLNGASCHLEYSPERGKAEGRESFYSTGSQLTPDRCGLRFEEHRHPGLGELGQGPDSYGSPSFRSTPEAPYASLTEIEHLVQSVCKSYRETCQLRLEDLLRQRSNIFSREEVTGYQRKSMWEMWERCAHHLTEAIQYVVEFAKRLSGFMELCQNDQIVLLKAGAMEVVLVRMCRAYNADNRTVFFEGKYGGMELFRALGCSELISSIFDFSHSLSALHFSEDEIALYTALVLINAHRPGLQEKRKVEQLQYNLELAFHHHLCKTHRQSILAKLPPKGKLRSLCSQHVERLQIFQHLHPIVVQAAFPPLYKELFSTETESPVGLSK
The data set is described as follows: RORE Luciferase/RORγt transactivation assay. It counts as cell-based. Conditions: COS-7 cells transfected with human IL-17 promoter luciferase reporter and RORγt plasmid; 20 h with compound; read-out: IC50, RORγt activity inhibition. In outline: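 Transactivation read-out: luminescence (Steady-Glo, 30 min at room temperature) from COS-7 cells carrying a RORγt expression plasmid plus a 4.3 kb IL-17 promoter luciferase reporter. Compound exposure was in serum-free DMEM with 0.3% DMSO final. Reported values are IC50 (μM) and Emax (%).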

The subject of data set [1] is Murine EL-4 lymphoma cell line overexpressing human RORγt. Description: IL-17 secretion from EL4 murine lymphoma. It counts as cell-based. Conditions: Mus musculus; human RORγt-transfected EL4 cells, PMA (10 ng/mL) and ionomycin (1 μM), 24 h; read-out: IC50, IL-17 secretion inhibition. As to the method:
Murine EL-4 lymphoma cell line overexpressing human RORγt was used in this functional assay to assess compound ability to inhibit IL-17 cytokine secretion.
EL-4 cells are maintained in a standard culture medium RPMI supplemented with 10% fetal calf serum, 1% sodium pyruvate, 1% essential amino acids and 1% antibiotics at 37° C. in a humidified atmosphere of 5% CO02 and 95% air. Culture medium was changed every 2 days. EL4 cells were transfected with a plasmid encoding hRORγt (sequence identical to published sequence NM 001001523). […] Briefly, 1 μg of DNA/1 million cells was served to transfect EL-4 cells. Cell/DNA suspension was transferred into certified cuvette and the electroporation of RORγt plasmid was carried out using appropriate Nucleofector® program.
Cells were seeded in 96 well plates at a density of 150000 cells/I well then treated with compounds of this invention at indicated concentrations and incubated for 24 hours at 37° C. in a humidified atmosphere of 5% C02 and 95% air. EL-4 cells were pretreated with test compounds (RORγ modulators) and stimulated with PMA (10 ng/mL) and ionomycin (1 μM final concentration) in the presence of test compound concentrations for additional 24 h at 37° C. in a humidified atmosphere of 5% C02 and 95% air. Subsequently, supernatants were collected (after centrifugation at 300 g for 10 minutes) to determine the concentrations of IL-17 by HTRF (CisBio, France) or ELISA (R&D Systems Europe) according to the manufacturer's protocols.

One may read the IC50 as the concentration that inhibits the measured activity by half. For orientation: melting point means the temperature, or range, at which the solid turns liquid. On to `Cc1ccc(C(NC(=O)Cc2ccc3c(c2)C(C)(O)C(=O)N3)c2ccc(C)o2)c(N2CCCCC2)c1` (stereo not shown) [Cpd. 47, 2-(3-hydroxy-3-methyl-2-oxo-2,3-dihydro-1H-indol-5-yl)-N-{[4-methyl-2-(piperidin-1-yl)phenyl](5-methylfuran-2-yl)methyl}acetamide], for which the melting point is 112 °C. The IC50 at human RORγt is 10 to 100 nM. The IC50 in data set [1] fell in the range of 100 to 1000 nM.
On the same counts, the results for `Cc1ccc(C(NC(=O)Cc2ccc3[nH]c(C)nc3c2)c2ccccc2)c(N2CCCCC2)c1` (stereo not shown) [Cpd. 75, 2-(2-methyl-1H-1,3-benzodiazol-5-yl)-N-{[4-methyl-2-(piperidin-1-yl)phenyl](phenyl)methyl}acetamide] are 137 °C, 10 to 100 nM and 100 to 1000 nM.
On the same counts, the results for `Cc1ccc(C(NC(=O)Cc2ccc3c(CO)c[nH]c3c2)c2ccc(C)o2)c(N2CCCCC2)c1` (stereo not shown) [Cpd. 88, 2-[3-(hydroxymethyl)-1H-indol-6-yl]-N-{[4-methyl-2-(piperidin-1-yl)phenyl](5-methylfuran-2-yl)methyl}acetamide] are 92 °C, 10 to 100 nM and under 100 nM.
The matching figures for `Cc1ccc(C(NC(=O)C2(c3ccc4[nH]cc(CO)c4c3)CC2)c2ccc(C)o2)c(N2CCCCC2)c1` (stereo not shown) [Cpd. 89, 1-[3-(hydroxymethyl)-1H-indol-5-yl]-N-{[4-methyl-2-(piperidin-1-yl)phenyl](5-methylfuran-2-yl)methyl}cyclopropane-1-carboxamide]: 112 °C, under 10 nM and under 100 nM.
For `Cc1ccc(C(NC(=O)Cc2ccc3[nH]cc(CN4CCOCC4)c3c2)c2ccc(C)o2)c(N2CCCCC2)c1` (stereo not shown) [Cpd. 94, N-{[4-methyl-2-(piperidin-1-yl)phenyl](5-methylfuran-2-yl)methyl}-2-[3-(morpholin-4-ylmethyl)-1H-indol-5-yl]acetamide], the melting point was found to be 100 °C. Also, on human RORγt, the IC50 was 10 to 100 nM. For the same compound, the IC50 in data set [1] was under 100 nM.
The matching figures for `Cc1ccc(C(NC(=O)Cc2ccc3c(ccn3CCC(=O)O)c2)c2ccc(C)o2)c(N2CCCCC2)c1` (stereo not shown) [Cpd. 97, 3-{5-[({[4-methyl-2-(piperidin-1-yl)phenyl](5-methylfuran-2-yl)methyl}carbamoyl)methyl]-1H-indol-1-yl}propanoic acid]: 95 °C, 10 to 100 nM and 100 to 1000 nM.
`COc1ccc(C(NC(=O)Cc2ccc3c(ccn3CCC(=O)O)c2)c2ccc(C)o2)c(N2CCCCCC2)c1` (stereo not shown) [Cpd. 111, 3-{5-[({[2-(azepan-1-yl)-4-methoxyphenyl](5-methylfuran-2-yl)methyl}carbamoyl)methyl]-1H-indol-1-yl}propanoic acid] showed a melting point of 80 °C. Moreover, at human RORγt, the IC50 is 10 to 100 nM. Further, the half-inhibitory concentration (IC50) in data set [1] lay in the range of 100 to 1000 nM.
Turning to `Cc1ccc(C(NC(=O)Cc2ccc3[nH]cc(CCS(C)(=O)=O)c3c2)c2ccc(Cl)o2)c(N2CCCC2)c1` (stereo not shown) [Cpd. 112, N-[(5-chlorofuran-2-yl)[4-methyl-2-(pyrrolidin-1-yl)phenyl]methyl]-2-[3-(2-methanesulfonylethyl)-1H-indol-5-yl]acetamide], the IC50 at human RORγt was 10 to 100 nM; in data set [1], 100 to 1000 nM.
Regarding `Cc1ccc(C(NC(=O)Cc2ccc3ccn(C(=O)N4CCOCC4)c3c2)c2ccc(C)o2)c(N2CCCCC2)c1` (stereo not shown) [Cpd. 114, N-{[4-methyl-2-(piperidin-1-yl)phenyl](5-methylfuran-2-yl)methyl}-2-[1-(morpholine-4-carbonyl)-1H-indol-6-yl]acetamide], the IC50 on human RORγt was 10 to 100 nM; in data set [1], 100 to 1000 nM.
With `CNS(=O)(=O)c1c[nH]c2ccc(CC(=O)NC(c3ccc(C)o3)c3ccc(C)cc3N3CCCCC3)cc12` (stereo not shown) [Cpd. 115, N-{[4-methyl-2-(piperidin-1-yl)phenyl](5-methylfuran-2-yl)methyl}-2-[3-(methylsulfamoyl)-1H-indol-5-yl]acetamide], the IC50 at human RORγt lay in the range of 10 to 100 nM; in data set [1] it was 100 to 1000 nM.
With `Cc1ccc(C(NC(=O)Cc2ccc3c(ccn3C(=O)N3CCOCC3)c2)c2ccc(C)o2)c(N2CCCCC2)c1` (stereo not shown) [Cpd. 116, N-{[4-methyl-2-(piperidin-1-yl)phenyl](5-methylfuran-2-yl)methyl}-2-[1-(morpholine-4-carbonyl)-1H-indol-5-yl]acetamide], the melting point came out at 88 °C. Also, the IC50 at human RORγt lay within 10 to 100 nM. In data set [1], the half-maximal inhibitory concentration (IC50) was under 100 nM.
The matching figures for `Cc1ccc(C(NC(=O)Cc2ccc3c(C(=O)CS(C)(=O)=O)c[nH]c3c2)c2ccc(C)o2)c(N2CCCCC2)c1` (stereo not shown) [Cpd. 117, 2-[3-(2-methanesulfonylacetyl)-1H-indol-6-yl]-N-{[4-methyl-2-(piperidin-1-yl)phenyl](5-methylfuran-2-yl)methyl}acetamide]: 85 °C, 10 to 100 nM and 100 to 1000 nM.
Compound `Cc1ccc(C(NC(=O)C2(c3ccc4[nH]cc(CNS(C)(=O)=O)c4c3)CC2)c2ccc(C)o2)c(N2CCCCC2)c1` (stereo not shown) [Cpd. 119, 1-[3-(methanesulfonamidomethyl)-1H-indol-5-yl]-N-{[4-methyl-2-(piperidin-1-yl)phenyl](5-methylfuran-2-yl)methyl}cyclopropane-1-carboxamide] yielded a melting point of 109 °C. The half-maximal inhibitory concentration (IC50) at human RORγt lay within 10 to 100 nM. In addition, in data set [1], the IC50 was under 100 nM.
For `Cc1ccc(C(NC(=O)Cc2ccc3[nH]cc(C(=O)N4CCOCC4)c3c2)c2ccc(C)o2)c(N2CCCCC2)c1` (stereo not shown) [Cpd. 120, N-{[4-methyl-2-(piperidin-1-yl)phenyl](5-methylfuran-2-yl)methyl}-2-[3-(morpholine-4-carbonyl)-1H-indol-5-yl]acetamide], the IC50 was 10 to 100 nM at human RORγt and under 100 nM in data set [1].
`CC(=O)N1CCc2cc(C3(C(=O)NC(c4ccc(C)o4)c4ccc(C)cc4C)CC3)ccc21` (stereo not shown) [Cpd. 126, 1-(1-acetyl-2,3-dihydro-1H-indol-5-yl)-N-[(2,4-dimethylphenyl)(5-methylfuran-2-yl)methyl]cyclopropane-1-carboxamide]: the IC50 on human RORγt is 10 to 100 nM; in data set [1] it was 100 to 1000 nM.
